Measurements published in ChEMBL document CHEMBL3112496, “C1,C2-ether derivatives of the Amaryllidaceae alkaloid lycorine: retention of activity of highly lipophilic analogues against cancer cells” (Bioorg Med Chem Lett, 2014).

What was measured:
[1] = test system: B16-F10; assay: Growth inhibition of mouse B16F10 cells by MTT assay; assay type: functional
[2] = Growth inhibition of human Hs683 cells by MTT assay; assay type: functional; conditions: Hs 683
[3] = test system: SK-MEL-28; assay: Growth inhibition of human SK-MEL-28 cells by MTT assay; assay type: functional
[4] = test system: T98G; assay: Growth inhibition of human T98G cells by MTT assay; assay type: functional
[5] = test system: MCF7; assay: Growth inhibition of human MCF7 cells by MTT assay; assay type: functional
[6] = test system: A549; assay: Growth inhibition of human A549 cells by MTT assay; assay type: functional
[7] = Lipophilicity, log P of the compound; assay type: physicochemical; conditions: octanol/water

Row | SMILES | GI50 [1] [µM] | GI50 [2] [µM] | GI50 [3] [µM] | GI50 [4] [µM] | GI50 [5] [µM] | GI50 [6] [µM] | logP [7]
1 | C=Cc1cccc2c1N(C)Cc1cc3c(cc1-2)OCO3 | 34 | > 100 | 59 | 89 | 82 | 54 | 
2 | C#CCCCO[C@H]1[C@H]2c3cc4c(cc3CN3CCC(=C[C@@H]1O[Si](C(C)C)(C(C)C)C(C)C)[C@H]23)OCO4 | 7.6 | 33 | 28 | 21 | 27 | 19 | 
3 | CCO[C@H]1[C@H]2c3cc4c(cc3CN3CCC(=C[C@@H]1OCC)[C@H]23)OCO4 | 18 | 5.9 | 35 | 8.1 | 17 | 4 | 
4 | CCCO[C@H]1[C@H]2c3cc4c(cc3CN3CCC(=C[C@@H]1OCCC)[C@H]23)OCO4 | 13 | 8.1 | 19 | 24 | 19 | 4.9 | 
5 | C1=C2CCN3Cc4cc5c(cc4[C@H]([C@H](OC/C=C/c4ccccc4)[C@H]1OC/C=C/c1ccccc1)[C@@H]23)OCO5 | 4.2 | 11 | 8.7 | 22 | 4.2 | 5.5 | 
6 | O[C@H]1[C@H]2c3cc4c(cc3CN3CCC(=C[C@@H]1OC/C=C/c1ccccc1)[C@H]23)OCO4 | 4.2 | 8.6 | 14 | 10 | 3.8 | 1.5 | 
7 | C#CCO[C@H]1[C@H]2c3cc4c(cc3CN3CCC(=C[C@@H]1OCC#C)[C@H]23)OCO4 | 28 | 27 | 52 | 68 | 32 | 23 | 
8 | C#CCO[C@H]1C=C2CCN3Cc4cc5c(cc4[C@H]([C@@H]1O)[C@@H]23)OCO5 | 42 | 81 | > 100 | > 100 | > 100 | 48 | 
9 | CC(C)=CCO[C@H]1[C@H]2c3cc4c(cc3CN3CCC(=C[C@@H]1OCC=C(C)C)[C@H]23)OCO4 | 5.3 | 9.7 | 10 | 24 | 9.5 | 4.4 | 
10 | C1=C2CCN3Cc4cc5c(cc4[C@H]([C@H](OCC4CC4)[C@H]1OCC1CC1)[C@@H]23)OCO5 | 27 | 23 | 33 | 37 | 28 | 4.2 | 1.19
11 | C1=C2CCN3Cc4cc5c(cc4[C@H]([C@H](OCC4CCC4)[C@H]1OCC1CCC1)[C@@H]23)OCO5 | 8 | 14 | 22 | 18 | 25 | 5.7 | 
12 | O[C@H]1[C@H]2c3cc4c(cc3CN3CCC(=C[C@@H]1OCC1CCC1)[C@H]23)OCO4 | 22 | 50 | 41 | 50 | 37 | 27 | 
13 | CO[C@H]1[C@H]2c3cc4c(cc3CN3CCC(=C[C@@H]1O[Si](C(C)C)(C(C)C)C(C)C)[C@H]23)OCO4 | 8.9 | 41 | 28 | 19 | 28 | 19 | 
14 | CO[C@H]1[C@H]2c3cc4c(cc3CN3CCC(=C[C@@H]1O)[C@H]23)OCO4 | 39 | > 100 | > 100 | 64 | > 100 | 43 | 
15 | COCCO[C@H]1[C@H]2c3cc4c(cc3CN3CCC(=C[C@@H]1OCCOC)[C@H]23)OCO4 | 38 | > 100 | 68 | 33 | 44 | 29 | 
16 | COCCO[C@H]1C=C2CCN3Cc4cc5c(cc4[C@H]([C@@H]1O)[C@@H]23)OCO5 | 40 | > 100 | 91 | 47 | 74 | 26 | 
17 | CSCO[C@H]1C=C2CCN3Cc4cc5c(cc4[C@H]([C@@H]1O)[C@@H]23)OCO5 | 51 | 86 | > 100 | > 100 | 70 | 60 | 
18 | COCO[C@H]1[C@H]2c3cc4c(cc3CN3CCC(=C[C@@H]1OCOC)[C@H]23)OCO4 | 31 | > 100 | 78 | 53 | 55 | 33 | 

Row | SMILES | GI50 [1] [µM] | GI50 [2] [µM] | GI50 [3] [µM] | GI50 [4] [µM] | GI50 [5] [µM] | GI50 [6] [µM] | logP [7]
19 | COCO[C@H]1C=C2CCN3Cc4cc5c(cc4[C@H]([C@@H]1O)[C@@H]23)OCO5 | 55 | > 100 | 85 | 48 | 85 | 35 | 
20 | C1=C2CCN3Cc4cc5c(cc4[C@H]([C@H](OC[C@@H]4CO4)[C@H]1OC[C@@H]1CO1)[C@@H]23)OCO5 | 70 | 44 | 70 | 44 | 77 | 39 | 
21 | O[C@H]1[C@H]2c3cc4c(cc3CN3CCC(=C[C@@H]1OC[C@@H]1CO1)[C@H]23)OCO4 | 51 | > 100 | > 100 | 49 | > 100 | 54 | 
22 | C1=C2CCN3Cc4cc5c(cc4[C@H]([C@H](OCc4cccnc4)[C@H]1OCc1cccnc1)[C@@H]23)OCO5 | 85 | > 100 | > 100 | 87 | 88 | 72 | 
23 | O[C@H]1[C@H]2c3cc4c(cc3CN3CCC(=C[C@@H]1OCc1cccnc1)[C@H]23)OCO4 | 66 | > 100 | 81 | 75 | 80 | 40 | 
24 | C=CCCO[C@H]1C=C2CCN3Cc4cc5c(cc4[C@H]([C@@H]1O)[C@@H]23)OCO5 | 21 | 67 | 42 | 39 | 7.7 | 11 | 
25 | C#CCCCO[C@H]1[C@H]2c3cc4c(cc3CN3CCC(=C[C@@H]1OCCCC#C)[C@H]23)OCO4 | 17 | 32 | 25 | 7.1 | 22 | 1.3 | 
26 | C#CCCCO[C@H]1C=C2CCN3Cc4cc5c(cc4[C@H]([C@@H]1O)[C@@H]23)OCO5 | 2.6 | 69 | 19 | 4.2 | 21 | 0.6 | 
27 | C#CCCCCO[C@H]1[C@H]2c3cc4c(cc3CN3CCC(=C[C@@H]1OCCCCC#C)[C@H]23)OCO4 | 10 | 29 | 16 | 6.8 | 16 | 2.8 | 
28 | C#CCCCCO[C@H]1C=C2CCN3Cc4cc5c(cc4[C@H]([C@@H]1O)[C@@H]23)OCO5 | 34 | 55 | 49 | 34 | 32 | 11 | 
29 | CC(C)[Si](O[C@H]1[C@H]2c3cc4c(cc3CN3CCC(=C[C@@H]1O)[C@H]23)OCO4)(C(C)C)C(C)C | 9.5 | 24 | 24 | 20 | 23 | 15 | 
30 | C#CCCCO[C@H]1C=C2CCN3Cc4cc5c(cc4[C@H]([C@@H]1O[Si](C(C)C)(C(C)C)C(C)C)[C@@H]23)OCO5 | 9 | 40 | 32 | 16 | 31 | 5.9 | 
31 | C#CCCCCO[C@H]1C=C2CCN3Cc4cc5c(cc4[C@H]([C@@H]1O[Si](C(C)C)(C(C)C)C(C)C)[C@@H]23)OCO5 | 8.7 | 23 | 25 | 13 | 19 | 4.2 | 
32 | C#CCCCCO[C@H]1[C@H]2c3cc4c(cc3CN3CCC(=C[C@@H]1O[Si](C(C)C)(C(C)C)C(C)C)[C@H]23)OCO4 | 6.4 | 35 | 26 | 24 | 28 | 21 | 
33 | C=CCO[C@H]1[C@H]2c3cc4c(cc3CN3CCC(=C[C@@H]1O[Si](C(C)C)(C(C)C)C(C)C)[C@H]23)OCO4 | 0.8 | 7.6 | 2.4 | 6.6 | 5 | 4.5 | 
34 | C#CCO[C@H]1[C@H]2c3cc4c(cc3CN3CCC(=C[C@@H]1O[Si](C(C)C)(C(C)C)C(C)C)[C@H]23)OCO4 | 6.2 | 27 | 8.2 | 4.9 | 8.3 | 3.6 | 
35 | CO[C@H]1C=C2CCN3Cc4cc5c(cc4[C@H]([C@@H]1O)[C@@H]23)OCO5 [HIPPPAMINE] | 40 | 36 | 92 | 84 | > 100 | 31 | 
36 | O[C@H]1[C@H]2c3cc4c(cc3CN3CCC(=C[C@@H]1O)[C@H]23)OCO4 [LYCORINE] | 2.6 | 2.1 | 3.7 | 5.2 | 10.9 | 3 | -0.78
